Experimental data reported in patent US10160756B2 (priority 2014, dated 2018).
Like-named read-outs stand apart in the source and are kept apart here.

Key:
VSV-WT = type: cell-based, vesicular stomatitis virus (Indiana strain)
MARV VP40 (mVP40) VLPs = assay: organism not typed; type: cell-based, Marburg virus (MARV)
mVP40-Nedd4 interaction = mVP40-Nedd4 interaction (Homo sapiens, UniProt P46934); type: cell-based
E-BiMC (Ebola VP40) = type: cell-based
EBOV VP40 (eVP40) VLPs = type: cell-based, Ebola virus (EBOV)
LFV Z VLPs = type: cell-based, Lassa fever virus (LFV)
VSV-M40 = type: cell-based, vesicular stomatitis virus

mVP40-Nedd4 interaction, sequence (P46934 whole entry): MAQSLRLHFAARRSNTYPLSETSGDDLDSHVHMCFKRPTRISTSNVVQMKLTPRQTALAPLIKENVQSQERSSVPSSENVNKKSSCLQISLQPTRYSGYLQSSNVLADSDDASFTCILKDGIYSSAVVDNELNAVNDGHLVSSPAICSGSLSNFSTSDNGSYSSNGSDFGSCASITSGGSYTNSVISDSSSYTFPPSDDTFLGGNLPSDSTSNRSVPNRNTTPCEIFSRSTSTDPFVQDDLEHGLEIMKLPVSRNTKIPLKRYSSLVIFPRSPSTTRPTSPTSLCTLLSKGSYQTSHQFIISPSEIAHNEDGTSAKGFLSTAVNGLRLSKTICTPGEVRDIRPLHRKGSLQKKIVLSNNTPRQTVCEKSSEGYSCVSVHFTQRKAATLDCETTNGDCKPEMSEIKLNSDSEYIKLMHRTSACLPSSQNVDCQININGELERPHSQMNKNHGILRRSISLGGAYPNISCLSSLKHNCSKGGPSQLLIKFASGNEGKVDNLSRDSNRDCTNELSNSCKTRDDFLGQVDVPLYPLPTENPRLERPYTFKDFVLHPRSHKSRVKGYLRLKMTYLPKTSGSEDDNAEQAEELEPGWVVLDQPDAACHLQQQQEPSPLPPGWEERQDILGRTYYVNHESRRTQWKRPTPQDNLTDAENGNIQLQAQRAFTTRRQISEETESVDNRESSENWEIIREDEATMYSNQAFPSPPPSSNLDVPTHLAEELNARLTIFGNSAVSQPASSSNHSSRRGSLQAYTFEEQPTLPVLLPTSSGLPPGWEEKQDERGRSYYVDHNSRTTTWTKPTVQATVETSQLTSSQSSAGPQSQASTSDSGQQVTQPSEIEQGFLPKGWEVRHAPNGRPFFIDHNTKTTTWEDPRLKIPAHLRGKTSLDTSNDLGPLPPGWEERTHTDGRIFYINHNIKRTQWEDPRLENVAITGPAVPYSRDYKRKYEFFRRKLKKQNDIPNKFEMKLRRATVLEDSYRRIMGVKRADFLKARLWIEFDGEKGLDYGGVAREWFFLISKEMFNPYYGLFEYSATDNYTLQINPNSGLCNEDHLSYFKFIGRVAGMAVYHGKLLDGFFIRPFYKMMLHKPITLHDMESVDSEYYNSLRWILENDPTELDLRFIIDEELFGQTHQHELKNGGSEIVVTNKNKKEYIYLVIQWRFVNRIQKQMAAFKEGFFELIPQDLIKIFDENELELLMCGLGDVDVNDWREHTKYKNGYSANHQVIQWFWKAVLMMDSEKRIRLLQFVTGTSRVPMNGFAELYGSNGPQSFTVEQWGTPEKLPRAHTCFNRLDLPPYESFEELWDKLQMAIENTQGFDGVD

O=C(CN1CCCC(c2nc3ccccc3s2)C1)NC(=O)NCC(F)(F)F (stereo not shown) [Compound 1, 2-(3-(benzo[d]thiazol-2-yl)piperidin-1-yl)-N-((2,2,2-trifluoroethyl)carbamoyl) acetamide]
reduction of budding of VSV-WT (VSV-WT; 10 μM): approximately 5 fold
inhibition of egress of mVP40 VLPs (MARV VP40 (mVP40) VLPs; 20 μM): ~5 fold

Cc1n[nH]c(C)c1NC(=O)CN1CCCC(c2nc3ccccc3s2)C1 (stereo not shown) [Compound 2, 2-(3-(benzo[d]thiazol-2-yl)piperidin-1-yl)-N-(3,5-dimethyl-1H-pyrazol-4-yl) acetamide]
target engagement in M-BiMC assay (mVP40-Nedd4 interaction): showed target engagement
inhibition of budding of live wild type VSV (VSV-WT): significantly inhibited
inhibition of egress of Marburg (M) VP40 VLPs (MARV VP40 (mVP40) VLPs; 20 μM): nearly full inhibition
inhibition of egress of mVP40 VLPs (MARV VP40 (mVP40) VLPs; 20 μM): 33 fold
inhibition of egress of mVP40 VLPs (MARV VP40 (mVP40) VLPs; 40 μM): 100 fold
target engagement in E-BiMC assay (E-BiMC (Ebola VP40)): showed target engagement
inhibition of egress of eVP40 VLPs (EBOV VP40 (eVP40) VLPs; 20 μM): 2.5 fold
inhibition of egress of Ebola (E) VP40 VLPs (EBOV VP40 (eVP40) VLPs; 40 μM): nearly full inhibition
inhibition of egress of eVP40 VLPs (EBOV VP40 (eVP40) VLPs; 40 μM): 40 fold

O=C(CN1CCCC(c2nc3ccccc3s2)C1)NCCOc1ccccc1 (stereo not shown) [Compound 2e, 2-(3-(benzo[d]thiazol-2-yl)piperidin-1-yl)-N-(2-phenoxyethyl)acetamide]
activity in the M VP40 budding assay (MARV VP40 (mVP40) VLPs; 10 μM): active

Cc1n[nH]c(C)c1NC(=O)CN1CCN(c2nc3ccccc3s2)CC1 [Compound 2g, 2-(4-(benzo[d]thiazol-2-yl)piperazin-1-yl)-N-(3,5-dimethyl-1H-pyrazol-4-yl)acetamide]
activity in SAR studies, MVP40 VLP budding (words, FIG. 10) (MARV VP40 (mVP40) VLPs): inactive

Cc1nc2ccccc2nc1SCC(=O)NC(=O)NCC(F)(F)F [Compound 3, 2-((3-methylquinoxalin-2-yl)thio)-N-((2,2,2-trifluoroethyl)carbamoyl) acetamide]
activity in SAR studies, MVP40 VLP budding (words, FIG. 10) (MARV VP40 (mVP40) VLPs): very effective
inhibition of egress of mVP40 VLPs (MARV VP40 (mVP40) VLPs; 1.0 μM): 10 fold
inhibition of egress of mVP40 VLPs (MARV VP40 (mVP40) VLPs; 10 μM): 100 fold
inhibition of egress of mVP40 VLPs (MARV VP40 (mVP40) VLPs; 20 μM): 100 fold
inhibition of egress of eVP40 VLPs (EBOV VP40 (eVP40) VLPs; 1.0 μM): < 2 fold
inhibition of egress of eVP40 VLPs (EBOV VP40 (eVP40) VLPs; 10 μM): 4.5 fold
inhibition of egress of eVP40 VLPs (EBOV VP40 (eVP40) VLPs; 20 μM): 20 fold

CCNC(=O)NC(=O)CSc1nc2ccccc2nc1C [Compound 3f, N-(ethylcarbamoyl)-2-((3-methylquinoxalin-2-yl)thio)acetamide]
potency relative to 3 in the MVP40 budding assay (MARV VP40 (mVP40) VLPs): as or more potent than 3

Cc1nc2ccccc2nc1SCC(=O)NC(=O)NC1CC1 [Compound 3g, N-(cyclopropylcarbamoyl)-2-((3-methylquinoxalin-2-yl)thio)acetamide]
potency relative to 3 in the MVP40 budding assay (MARV VP40 (mVP40) VLPs): as or more potent than 3

Cc1nc2ccccc2nc1SCC(=O)NC(=O)NCc1cccs1 [Compound 3i, 2-((3-methylquinoxalin-2-yl)thio)-N-((thiophen-2-ylmethyl)carbamoyl)acetamide]
potency relative to 3 in the MVP40 budding assay (MARV VP40 (mVP40) VLPs): as or more potent than 3

Cc1nn(-c2ccccc2)c(C)c1NC(=O)CN1CCCC(c2nc3ccccc3s2)C1 (stereo not shown) [Compound 4, 2-(3-(benzo[d]thiazol-2-yl)piperidin-1-yl)-N-(3,5-dimethyl-1-phenyl-1H-pyrazol-4-yl)acetamide]
inhibition of egress of LFV Z VLPs (LFV Z VLPs; 0.5 μM): > 5 fold
PPxY-dependent budding of VSV reduced (VSV-WT; 0.1 μM): approximately 50%
PPxY-dependent budding of VSV reduced (VSV-WT; 0.5 μM): ~100%
inhibition of egress of VSV-WT (VSV-WT; 0.5 μM): approximately 20 fold
inhibition of egress of live VSV-WT (VSV-WT; 0.5 μM): more than 1 log
titer of VSV-WT (VSV-WT; 0.5 μM): 1.8×10^6 pfu/ml
inhibition of egress of VSV-M40 (VSV-M40; 0.1 μM): approximately 2 fold
inhibition of egress of VSV-M40 (VSV-M40; 0.5 μM): 3 fold
activity in SAR studies, MVP40 VLP budding (words, FIG. 10) (MARV VP40 (mVP40) VLPs): sub-micromolar
budding of mVP40 VLPs reduced (MARV VP40 (mVP40) VLPs): > 90%
inhibition of egress of mVP40 VLPs (MARV VP40 (mVP40) VLPs; 0.5 μM): 30 fold
inhibition of egress of mVP40 VLPs (MARV VP40 (mVP40) VLPs; 1.0 μM): 100 fold
inhibition of egress of eVP40 VLPs (EBOV VP40 (eVP40) VLPs; 0.5 μM): 3 fold
inhibition of egress of eVP40 VLPs (EBOV VP40 (eVP40) VLPs; 1.0 μM): 10 fold

Cc1nc2ccccc2nc1SCC(=O)NC(=O)Nc1ccccc1 [Compound 5, 2-((3-methylquinoxalin-2-yl)thio)-N-(phenylcarbamoyl)acetamide]
inhibition of egress of LFV Z VLPs (LFV Z VLPs; 0.1 μM): approximately 3 fold
inhibition of egress of LFV Z VLPs (LFV Z VLPs; 0.5 μM): ~5 fold
inhibition of egress of VSV-WT (VSV-WT; 0.5 μM): 4 fold
inhibition of egress of VSV-M40 (VSV-M40; 0.1 μM): 2 fold
inhibition of egress of VSV-M40 (VSV-M40; 0.5 μM): 6 fold
inhibition of egress of mVP40 VLPs (MARV VP40 (mVP40) VLPs; 0.1 μM): 25 fold
inhibition of egress of mVP40 VLPs (MARV VP40 (mVP40) VLPs; 0.5 μM): 100 fold
inhibition of egress of mVP40 VLPs (MARV VP40 (mVP40) VLPs; 1.0 μM): 100 fold
IC50 (MARV VP40 (mVP40) VLPs; read-out: IC50, anti-budding activity on MVP40): < 0.1 µM
inhibition of egress of eVP40 VLPs (EBOV VP40 (eVP40) VLPs; 0.1 μM): < 2 fold
inhibition of egress of eVP40 VLPs (EBOV VP40 (eVP40) VLPs; 0.5 μM): 3.5 fold
inhibition of egress of eVP40 VLPs (EBOV VP40 (eVP40) VLPs; 1.0 μM): 7 fold
